# In article PMC5418711, “Safety and efficacy of the choline analogue SAR97276 for malaria treatment: results of two phase 2, open-label, multicenter trials in African patients” (Malaria Journal, 2017):
# Tests used:
# [1] = tested on: P. falciparum laboratory and clinical isolates; parameters: method as in PMID 11847346, PMID 15492221; conditions: cited from earlier work
# P. falciparum = test: Study 1: phase 2 trial, efficacy of SAR97276A in uncomplicated falciparum malaria patients; type: in vivo, Plasmodium falciparum; conditions: for Median time to 50% parasite reduction (95% CI) / Median time to 90% parasite reduction (95% CI): Kaplan–Meier; for Recurrences up to day 28: patients judged successfully treated after 72 h
# Method: The study was designed to enroll up to 210 malaria patients in sequential cohorts. A staggered trial design was planned to assess a single, IM dose of SAR97276A (0.18 mg/kg, or 12.5 mg fixed dose) first in adults and then progressively in children (age 7–17 years) and young children (age 0.5–7 years). Age de-escalation of the study was only allowed if threshold response rate in the respective study cohort was met (26 patients out of 30 patients need to have met the 4 criteria of the primary endpoint at 72 h plus adequate safety results). If efficacy criteria were not met but safety was acceptable, SAR97276A would be tested as a 3-day IM regimen (3 injections, 24 h apart) in an additionally recruited 30 patients of the respective cohort. Subsequently, in case of acceptable safety and efficacy, all following cohorts were treated with the 3-day IM regimen. In parallel, SAR97276A was planned to be tested as a single, IV dose (0.14 mg/kg or 10 mg fixed dose) first in adults and then in young children with severe malaria, if threshold response rate was met. An overview of this adaptive study design can be seen in Fig. 1 and Table 1.
# The following age cohorts were planned to be enrolled: (i) Adults aged 18–65 years, body weight ≥50 kg, and uncomplicated malaria with P. falciparum ≥100 parasites/µL; (ii) children aged 7–17 years, and uncomplicated malaria with P. falciparum ≥1000 parasites/µL, and (iii) young children aged of 0.5–7 years with uncomplicated malaria (P. falciparum count ≥1000 parasites/µL) and as an additional group with symptoms or signs of severe malaria according to WHO [9]. Adults received SAR97276A either by IM (study group 1A and 1B) or by IV route (study group 1C). Children received SAR97276A only by IM injection (study group 1D). Young children (0.5–7 years) both with uncomplicated and with severe malaria were not included as Study 1 was stopped before reaching these cohorts due to lack of efficacy.
# Study duration and follow-up In both studies, study duration was 28 days for each patient including a screening period of up to 12 h before inclusion into the study. Participants were hospitalized for at least 3 days (72 h) after the start of treatment. Follow-up visits were done on day 6, 8, 14 ± 2, 21 ± 2, 28 ± 2 (Study 1); and day 7, 14 ± 2, 21 ± 2, 28 ± 2 (Study 2). Patient examination Fever measurements and thick blood smears were done every 6 h until 72 h and at each follow-up visit. Parasitemia was determined microscopically by Giemsa stained thick blood smear by two trained microscopists blinded to each other. Safety assessment Safety analysis was based on AEs including vision assessment recorded from baseline until day 28 (in binocular conditions, for near and distant visual acuity, using standard optotypes appropriate for patient’s age and reading ability. Tests with standard corrective glasses (+3 and −3 diopters) were performed in case of visual adverse events, to assess whether vision improved or worsened with corrective glasses). Laboratory tests including hematology, biochemistry and urine analysis were done at baseline, day 2, 4, 28 (Study 1), or baseline, day 2, 4, 14, 28 (Study 2); vital signs were recorded at baseline, every 6 h until 72 h and on each follow up visit. An electrocardiogram (ECG) was done at baseline, day 4, 28 (Study 1), or baseline, 48 h, 72 h, day 28 (Study 2). For Study 2 respiratory parameters (respiratory rate, peak flow, efficiency of cough) were also checked at baseline and 30 min after first dose on day 1, 2 and 3.
# Definition of fever clearance Fever was defined as temperature ≥38 °C.
# Definition of general condition improvement The symptoms were scored at baseline and every 6 h up to day 4 (72 h), including headache, fatigue, nausea-vomiting and abdominal pain. The symptoms were scored according to the following scale: absent -0-, mild -1-, moderate -2- and severe -3-. The total clinical score ranged between 0 and 12. […]
# [2] = Group 1A: 1 day IM 0.18 mg/kg, adults, N=34
# [3] = Group 1A: 1 day IM 0.18 mg/kg, adults, PCR data available 12/14
# [4] = Group 1B: 3 days IM 0.18 mg/kg, adults, N=30
# [5] = Group 1B: 3 days IM 0.18 mg/kg, adults, PCR data available 11/13
# [6] = Group 1C: 1 day IV 0.14 mg/kg, adults, N=30
# [7] = Group 1C: 1 day IV 0.14 mg/kg, adults, PCR data available 10/15
# [8] = Group 1D: 3 days IM 0.18 mg/kg, children
# [9] = Group 1D: 3 days IM 0.18 mg/kg, children, N=19
# [10] = Group 1D: 3 days IM 0.18 mg/kg, children, PCR data available 8/8
smiles,measurement,setting,value
Cc1c(CCO)sc[n+]1CCCCCCCCCCCC[n+]1csc(CCO)c1C [SAR97276A],In vitro-activity against P. falciparum laboratory and clinical isolates,[1],powerful in vitro-activity
same,General condition improvement at 48 h: Failure,P. falciparum; [2],2 (6%)
same,General condition improvement at 48 h: Success,P. falciparum; [2],32 (94%)
same,Parasite reduction (at least 90% at 72 h): Failure,P. falciparum; [2],11 (32%)
same,Parasite reduction (at least 90% at 72 h): Success,P. falciparum; [2],23 (68%)
same,Rescue therapy criterion (no need for rescue therapy): Failure,P. falciparum; [2],5 (15%)
same,Rescue therapy criterion (no need for rescue therapy): Success,P. falciparum; [2],29 (85%)
same,Median time to 50% parasite reduction (95% CI),P. falciparum; [2],18.0 (12.0–24.0) h
same,Median time to 90% parasite reduction (95% CI),P. falciparum; [2],30.0 (18.0–30.0) h
same,New infection (PCR genotyped recurrences up to day 28),P. falciparum; [3],9 (75%)
same,Recrudescences (PCR genotyped recurrences up to day 28),P. falciparum; [3],3 (25%)
same,Recurrences up to day 28,"P. falciparum; Group 1A: 1 day IM 0.18 mg/kg, adults",14
same,General condition improvement at 48 h: Failure,P. falciparum; [4],2 (7%)
same,General condition improvement at 48 h: Success,P. falciparum; [4],28 (93%)
same,Parasite reduction (at least 90% at 72 h): Failure,P. falciparum; [4],2 (7%)
same,Parasite reduction (at least 90% at 72 h): Success,P. falciparum; [4],28 (93%)
same,Rescue therapy criterion (no need for rescue therapy): Failure,P. falciparum; [4],1 (3%)
same,Rescue therapy criterion (no need for rescue therapy): Success,P. falciparum; [4],29 (97%)
same,Median time to 50% parasite reduction (95% CI),P. falciparum; [4],18.0 (6.0–24.0) h
same,Median time to 90% parasite reduction (95% CI),P. falciparum; [4],24.0 (12.0–36.0) h
same,New infection (PCR genotyped recurrences up to day 28),P. falciparum; [5],6 (54.5%)
same,Recrudescences (PCR genotyped recurrences up to day 28),P. falciparum; [5],5 (45.5%)
same,Recurrences up to day 28,"P. falciparum; Group 1B: 3 days IM 0.18 mg/kg, adults",13
same,General condition improvement at 48 h: Failure,P. falciparum; [6],1 (3%)
same,General condition improvement at 48 h: Success,P. falciparum; [6],29 (97%)
same,Parasite reduction (at least 90% at 72 h): Failure,P. falciparum; [6],7 (23%)
same,Parasite reduction (at least 90% at 72 h): Success,P. falciparum; [6],23 (77%)
same,Rescue therapy criterion (no need for rescue therapy): Failure,P. falciparum; [6],1 (3%)
same,Rescue therapy criterion (no need for rescue therapy): Success,P. falciparum; [6],29 (97%)
same,Median time to 50% parasite reduction (95% CI),P. falciparum; [6],9.0 (6.0–18.0) h
same,Median time to 90% parasite reduction (95% CI),P. falciparum; [6],30.0 (18.0–30.0) h
same,New infection (PCR genotyped recurrences up to day 28),P. falciparum; [7],6 (60%)
same,Recrudescences (PCR genotyped recurrences up to day 28),P. falciparum; [7],4 (40%)
same,Recurrences up to day 28,"P. falciparum; Group 1C: 1 day IV 0.14 mg/kg, adults",15
same,Recrudescence of the same parasite until day 14 in successfully cured children (assessed after 72 h),P. falciparum; [8],3/13
same,Enrolled patients failed to meet the predetermined efficacy response criteria,"P. falciparum; Group 1D: 3 days IM 0.18 mg/kg, children's cohort",5/19
same,General condition improvement at 48 h: Failure,P. falciparum; [9],1 (5%)
same,General condition improvement at 48 h: Not evaluable,P. falciparum; [9],1 (5%)
same,General condition improvement at 48 h: Success,P. falciparum; [9],17 (90%)
same,Parasite reduction (at least 90% at 72 h): Failure,P. falciparum; [9],5 (26%)
same,Parasite reduction (at least 90% at 72 h): Not evaluable,P. falciparum; [9],0
same,Parasite reduction (at least 90% at 72 h): Success,P. falciparum; [9],14 (74%)
same,Rescue therapy criterion (no need for rescue therapy): Failure,P. falciparum; [9],4 (21%)
same,Rescue therapy criterion (no need for rescue therapy): Not evaluable,P. falciparum; [9],0
same,Rescue therapy criterion (no need for rescue therapy): Success,P. falciparum; [9],15 (79%)
same,Median time to 50% parasite reduction (95% CI),P. falciparum; [9],24.0 (12.0–24.0) h
same,Median time to 90% parasite reduction (95% CI),P. falciparum; [9],24.0 (24.0–30.0) h
same,New infection (PCR genotyped recurrences up to day 28),P. falciparum; [10],0
same,Recrudescences (PCR genotyped recurrences up to day 28),P. falciparum; [10],8 (100%)
same,Recurrences up to day 28,P. falciparum; [8],8
same,"Recurrences in the successfully treated patients until day 28, total","P. falciparum; Study 1, all groups",50
same,"New infections among genotyped recurrences, total","P. falciparum; Study 1, all groups, 41 recurrences genotyped by PCR",21
